The text below walks through data of PubChem BioAssay (NCI).

Test systems include HCT-116 colon; SNB-19 CNS; SN12C renal; MALME-3M melanoma; K-562 leukemia; HS 578T breast; TK-10 renal; UO-31 renal; SF-268 CNS; NCI-H226 lung; U251 CNS; HOP-92 NSCLC; HL-60(TB) leukemia; LOX IMVI melanoma; NCI-H460 lung; SNB-75 CNS; OVCAR-8 ovarian; RXF 393 renal.
Holding throughout (test): NCI anticancer screen, dose series, 48 h

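Exposure lasted 48 hours, with cells grown in 96-well plates and compounds tested at five concentrations. TGI: concentration producing complete growth inhibition.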

As for `COc1cc(C2c3cc4c(cc3OC(NCCc3ccccc3)C2C)OCO4)cc(OC)c1OC` (stereo not given), the TGI with HCT-116 colon is 18.6 µM; in the experiment on SNB-19 CNS it was greater than 100 µM; in the experiment on SN12C renal it was greater than 65.3 µM; in the experiment on MALME-3M melanoma it was 17.6 µM; in the experiment on K-562 leukemia, 16.9 µM; in the experiment on HS 578T breast, 0.425 µM. In addition, the TGI in the experiment on TK-10 renal is greater than 100 µM; with UO-31 renal, 22.8 µM; in the experiment with SF-268 CNS it was greater than 39.3 µM; with NCI-H226 lung, 7.43 µM; with U251 CNS, 14.7 µM; in the experiment on HOP-92 NSCLC, 63.3 µM. Moreover, the TGI in the experiment on HL-60(TB) leukemia was 0.547 µM; with LOX IMVI melanoma, 15.6 µM; with NCI-H460 lung, greater than 52.1 µM; in the experiment with SNB-75 CNS, 0.488 µM; in the experiment on OVCAR-8 ovarian, greater than 100 µM.
In the case of `CCOC(=O)CCC(NC(=O)C(N)c1ccc([N+](=O)[O-])cc1)C(=O)NC(CCC(=O)OCC)C(=O)OCC` (stereo not given), the TGI with HCT-116 colon, in the experiment with SNB-19 CNS, with SN12C renal, in the experiment on MALME-3M melanoma, in the experiment on K-562 leukemia and in the experiment on HS 578T breast was greater than 100 µM in each case. Further, the TGI in the experiment with TK-10 renal, with UO-31 renal, in the experiment on NCI-H226 lung, in the experiment with U251 CNS, in the experiment with HOP-92 NSCLC and with HL-60(TB) leukemia was greater than 100 µM each time. Further, the TGI with NCI-H460 lung, with SNB-75 CNS and in the experiment on OVCAR-8 ovarian was greater than 100 µM throughout.
For `COc1cc(C2SCC(=O)N2c2ccc(NC(C)=O)cc2)cc(OC)c1OC` (stereo not given), the TGI in the experiment on HCT-116 colon, in the experiment on SNB-19 CNS, with SN12C renal, in the experiment with K-562 leukemia, in the experiment with HS 578T breast and in the experiment on TK-10 renal was greater than 100 µM in each case. Besides, the TGI in the experiment with UO-31 renal, in the experiment with SF-268 CNS, with NCI-H226 lung, in the experiment with U251 CNS, in the experiment with HOP-92 NSCLC and with HL-60(TB) leukemia was greater than 100 µM in each case. Also, the TGI in the experiment with LOX IMVI melanoma, in the experiment on NCI-H460 lung and with OVCAR-8 ovarian was greater than 100 µM throughout.
For `NS(=O)(=O)c1nnc(NC(=O)c2cccc([N+](=O)[O-])c2)s1`, the TGI with HCT-116 colon, in the experiment with SNB-19 CNS, in the experiment on SN12C renal, with MALME-3M melanoma, in the experiment with RXF 393 renal and in the experiment with K-562 leukemia was greater than 100 µM throughout. The TGI in the experiment with HS 578T breast, in the experiment on TK-10 renal, in the experiment with UO-31 renal, in the experiment with SF-268 CNS, in the experiment on NCI-H226 lung and with U251 CNS was greater than 100 µM in each case. The TGI in the experiment on HOP-92 NSCLC, with HL-60(TB) leukemia, in the experiment on LOX IMVI melanoma, in the experiment on NCI-H460 lung and in the experiment with OVCAR-8 ovarian was greater than 100 µM in each case.
As to `CCCCC(/C=C\COC1CCCCO1)=C/C(=O)OCC` (stereo not given), the TGI in the experiment on HCT-116 colon, in the experiment on SNB-19 CNS, in the experiment on SN12C renal, in the experiment with MALME-3M melanoma, with RXF 393 renal and with K-562 leukemia was greater than 100 µM in each case. Moreover, the TGI in the experiment on HS 578T breast, in the experiment with TK-10 renal, in the experiment on UO-31 renal, in the experiment on SF-268 CNS, in the experiment with NCI-H226 lung and in the experiment with U251 CNS was greater than 100 µM throughout. For the same compound, the TGI is 67.5 µM in the experiment on HL-60(TB) leukemia; greater than 100 µM in the experiment on LOX IMVI melanoma; greater than 100 µM with NCI-H460 lung; greater than 100 µM with SNB-75 CNS; greater than 100 µM in the experiment on OVCAR-8 ovarian.
With `CSC1=C(C(=O)Nc2ccc(C)cc2)C(N)=NC1=O`, the TGI with HCT-116 colon, with SNB-19 CNS, with RXF 393 renal, with K-562 leukemia, in the experiment with HS 578T breast and in the experiment with TK-10 renal was greater than 100 µM in each case. Moreover, the TGI in the experiment on UO-31 renal, in the experiment with SF-268 CNS, in the experiment on NCI-H226 lung, with U251 CNS, in the experiment on HOP-92 NSCLC and with HL-60(TB) leukemia was greater than 100 µM throughout. Also, the TGI in the experiment on LOX IMVI melanoma, in the experiment on NCI-H460 lung, with SNB-75 CNS and with OVCAR-8 ovarian was greater than 100 µM each time.
With `CC(C)CCC[C@@H](C)C1CCC2[C@@H]3CCC4C[C@@H](NS(C)(=O)=O)CC[C@]4(C)C3CC[C@@]21C` (stereo not given in full), the TGI in the experiment on HCT-116 colon, with SNB-19 CNS, in the experiment on SN12C renal, in the experiment with MALME-3M melanoma, with RXF 393 renal and in the experiment on K-562 leukemia was greater than 100 µM throughout. Moreover, the TGI with HS 578T breast, in the experiment with TK-10 renal, in the experiment on UO-31 renal, with SF-268 CNS, in the experiment with NCI-H226 lung and in the experiment on U251 CNS was greater than 100 µM throughout. Also, the TGI in the experiment on HL-60(TB) leukemia, in the experiment on LOX IMVI melanoma, with NCI-H460 lung, with SNB-75 CNS and in the experiment with OVCAR-8 ovarian was greater than 100 µM throughout.
Consider `COc1cc(C(c2cccc3ccccc23)N2C(=O)CCC2C(=O)O)cc(OC)c1OC` (stereo not given), for which the TGI with HCT-116 colon, with SNB-19 CNS, in the experiment with SN12C renal, in the experiment with MALME-3M melanoma, in the experiment with RXF 393 renal and with K-562 leukemia was greater than 100 µM in each case. Moreover, the TGI with HS 578T breast, with UO-31 renal, with SF-268 CNS, in the experiment on NCI-H226 lung, with U251 CNS and in the experiment on HOP-92 NSCLC was greater than 100 µM in each case. Also, the TGI with HL-60(TB) leukemia, with NCI-H460 lung, in the experiment on SNB-75 CNS and in the experiment with OVCAR-8 ovarian was greater than 100 µM throughout.
As for `CCOC(=O)N(C)C(=C(F)F)C(F)(F)F`, the TGI in the experiment with HCT-116 colon was 55.2 µM; in the experiment with MALME-3M melanoma it was 33.5 µM; in the experiment on K-562 leukemia it was 62.1 µM; in the experiment on HS 578T breast, greater than 100 µM; in the experiment with TK-10 renal, 97.8 µM; in the experiment on UO-31 renal it was greater than 100 µM. The TGI in the experiment on SF-268 CNS is 97.4 µM; in the experiment on NCI-H226 lung, 58.3 µM; in the experiment with U251 CNS, greater than 100 µM; in the experiment on HOP-92 NSCLC, 65.2 µM; in the experiment with HL-60(TB) leukemia it was 49.7 µM; with LOX IMVI melanoma, 85.5 µM. Moreover, the values for the TGI in the experiment with NCI-H460 lung, in the experiment with SNB-75 CNS and in the experiment on OVCAR-8 ovarian were greater than 100 µM, 93.1 µM and 79.4 µM, respectively.
